Here are results for three compounds from patent publication US11554105B2, “Combinations of artemisinins, BCL-2 inhibitors, and kinase inhibitors for cancer treatment” (UNIVERSITY OF MARYLAND, BALTIMORE, priority 2018, dated 2023).

Structures are written as SMILES. “Also recorded” adds a separate entry of the source. Read-outs that look alike come from different tables or passages of the source. Marks after values point to notes of the source that are not given here.

Data set [1] deals with MOLM14, KOPN8 and RCH-ACV cell lines. Put plainly: Kinase inhibitor drug combination screen, summary over the three cell lines. The note with it: >10% growth inhibition over the Bliss prediction; of three cell lines.
Protocol: Plates (3×384-well per set) contained 7 graded concentrations of each drug at 2× final concentration in culture media in 25 μl/well. […] Cells were plated such that each well contained 2500 cells (MOLM14) or 5000 cells (KOPN8 and RCH-ACV). […] Each plate contained two positive control wells used for background subtraction. Each plate also contained 45 wells without any drug. The background-subtracted absorbance for each well was normalized to the average of the no-drug wells from the corresponding vehicle plate.
Hits were ranked by the observed inhibition over the Bliss independence prediction.
Combinations with positive values for this Bliss difference were considered synergistic, values near zero, additive, and negative values, antagonistic.
The subject of another data set is RCH-ACV. Put plainly: Kinase inhibitor drug combination screen (MTS, Bliss-independence analysis). The note with it: Drug 1 combined with AS (Drug 2) at its approximate IC50, 48 h, average over seven Drug 1 concentrations.
Another data set has as its system KOPN8. Described as above. The class given is cell-based, human. The following applies: Drug 1 combined with ART-838 (Drug 2) at its approximate IC50, 48 h, average over seven Drug 1 concentrations.
The subject of the next data set is MCL1. Put plainly: Western blot of MCL1 protein levels. The class given is cell-based, human. The following applies: acute leukemia / AML cell lines. On the procedure:
FIG. 22. ART631 increased ROS and CHOP levels, and reduced MCL1 protein levels. A) MOLM14 AML cells were pre-loaded with 5 mM ROS detection reagent CM-H2DCFDA for 30 m, pretreated with 11 mM for DFO for 60 m, then cultured with 200 nM ART631 or vehicle (DMSO) for 18 h and analyzed by flow cytometry. […] Protein was Western blotted as in FIG. 21. MCL1 protein levels were decreased and CHOP protein levels increased. C) From MOLM14 AML cells cultured as above, total RNA was isolated, cDNA synthesized, and SYBR Green qRT-PCR performed in triplicates. Ct values were normalized to housekeeping gene GAPDH and fold-change computed relative to vehicle control. DDIT3 mRNA (encoding CHOP protein) was increased. MV4; 11 AML and ML2 AML cell lines were tested with similar results.
(§1) To add to the efficacy of this ART838 plus ABT199 treatment regimen, rational addition of a third low-toxicity active antileukemic agent was investigated.
Many acute myeloid leukemia (AML) cell lines express MCL1±BCL2 (FIG. 21). As with other ARTs, ART631 elevates AML cellular ROS (FIG. 22A), which is reduced by the iron chelator desferrioxamine (DFO). […] Culture of AML cells with ARTs increased CHOP protein and DDIT3 mRNA (encodes CHOP) levels (FIG. 22C).
A general note: A western blot detects proteins with antibodies after separation by electrophoresis.

Data set [2] concerns acute leukemia xenografts. Description: Acute leukemia xenografts treated with ART838 two-drug combinations. The class given is in vivo. The following applies: compared to vehicle or single drugs.
From the text: as §1

Data set [3] deals with mitochondrial superoxide in MOLM14 cells. Description: Mitochondrial superoxide (MitoSOX Red, flow cytometry). The note with it: 16 h. The class given is cell-based, human. As for the experimental part:
FIGS. 4A-4D. Effects of ART-838- and AS-containing drug combinations on MOLM14 growth and superoxide generation. […] CIs were computed as described above. CI<1 indicates synergy, CI=1, additivity, CI>1, antagonism. […] Cells were then loaded with 5 μM MitoSox for 30 min, washed, and analyzed by flow cytometry for MitoSox fluorescence (indicating mitochondrial superoxide) in the FL2 channel. Mean fluorescence intensity (MFI) was normalized to that of vehicle control (0.5% DMSO) with no pretreatment (100%, lower dotted lines). Upper dotted lines show MFI of ART-838- or AS-treated cells. Error bars represent the SEM of three independent experiments.
Cells were pretreated with NAC, Tiron, DFO, or vehicle then treated with AS, ART-838, or vehicle, as described above, then following a 16-hour drug treatment, cells were loaded with 5 μM MitoSOX Red (Invitrogen, Carlsbad, Calif.) for 30 minutes at 37° C. with 5% CO2, then analyzed using the FL2 channel of an Accuri C6 flow cytometer.
As both ART-838 and AS increased mitochondrial superoxide, and many antineoplastic drugs induce ROS generation, mitochondrial superoxide levels of MOLM14 cells treated with each of the above six antileukemic drugs were evaluated, alone and in combination with ART-838 or AS. All six drugs induced mitochondrial superoxide, although to a much lesser extent than did ART-838 (FIG. 4B) or AS (FIG. 4D).
Background: In flow cytometry, cells or beads pass a laser one at a time.

In a further data set the test system is MOLM14 AML xenografts. Put plainly: Subcutaneous MOLM14 xenograft growth, SOR with AS. The note with it: tumor size on day 24; drugs p.o. The class given is in vivo, NSG mice. On the procedure:
FIG. 15. AS enhanced in vivo efficacy of Sorafenib (SOR) against acute leukemia xenografts in NSG mice. […] Drug or vehicle were given p.o. on day 3-7, 17-21, and 31-35 when possible. Mouse tumors were measured on the indicated days.
The NSG mice were obtained, maintained and handled as described in the paragraph immediately above. AS was also formulated in Tween 80:ethanol (7:3, v:v) and diluted 1:10 in filtered deionized water immediately before administration. For the human AML xenograft model, 6-12-week-old male NSG mice (>20 g) were transplanted sc with MOLM14 cells on day 0 and drug-treated via oral gavage, as specified in legend. Mice were monitored daily and euthanized when tumors reached an estimated mass of 2000 mg as described in the paragraph immediately above.
Palpable tumors appeared about 2 weeks after transplantation.

In another data set the test system is human AML cell lines. Description: In vitro efficacies of artemisinin derivatives against human AML cell lines. The class given is cell-based. On the procedure: Cell lines were seeded in 96-well tissue culture plates at 10^4 cells per well (myeloid leukemia lines) or 2×10^4 cells per well (lymphoid leukemia lines) in culture medium, followed by addition of drugs at the indicated concentrations. 2-4 wells per plate containing media-only were included for background subtraction. Peripheral wells were filled with sterile water to minimize the effects of evaporation.
A novel trioxane dimer allyloxime-631 (ART631) has been designed to further extend in vivo T1/2 without sacrificing antimalarial activity.

The nature of the next data set: in vivo. From the text: (§2) FIG. 24. Concentration-time profile for 2C-ARTs with PK parameters.
FIG. 25A-25C. […] NOD-Rag1^nullIL2rg^null (NRG) mice were transplanted IV with Luc-labelled MV4; 11 cells on d10. […] FIG. 25A) MTD cyclic drug treatment schema.

The conditions of data set [4]: PO qd×5 at MTD; 15 mg/kg ART631, 50 mg/kg ART838. On the procedure:
as §2
Preliminary pharmacokinetic (PK) studies were designed to compare the PK of ART631 at steady-state at its maximum tolerated dose (MTD) (FIG. 24). […] ART631 plasma concentrations exceeded 50 nM for ˜8 h.

In data set [5] the test system is human leukemia cell lines. The following applies: more potent than AS; cited from earlier work.
For data set [6], the system named is MV4:11 or MOLM14 AML xenografts. Description: Luc-labelled AML xenografts treated with VEN, SOR and ART838 or ART631 (5-cycle MTD regimen). The class given is in vivo, NRG mice. The following applies: two AML xenograft models; single agents and in combination with VEN+SOR. An excerpt:
FIG. 25A-25C. […] FIG. 25A) MTD cyclic drug treatment schema.
Outcome metrics included 1) maximal in vivo antileukemic efficacy 3 days (d) after completion of the 1st treatment cycle (FIG. 25B); 2) survival (FIG. 25C); and 3) toxicity.

The conditions of data set [7]: cited from earlier work.

With `COc1cc(Oc2ccnc3cc(OC)c(OC)cc23)ccc1NC(=O)NC(C)c1nccs1` (centres unmarked) [KI20227], the “No. Cell Lines synergistically inhibited by drug 1 combined with AS and/or ART-838” value in data set [1] is listed as 2/3**. Also, the “fractional inhibition over Bliss prediction” value in the data set on RCH-ACV is “RCH-ACV (0.14)”; in the data set with KOPN8, “KOPN8 (0.12)”.

As for `CNC(=O)c1cc(Oc2ccc(NC(=O)Nc3ccc(Cl)c(C(F)(F)F)c3)cc2)ccn1` [SOR, sorafenib], in the data set on MCL1, the MCL1 protein levels entry is on record as “large reductions; also recorded: downregulates”. For the same compound, in [2], the “leukemia xenograft growth rates, drug combined with ART838” value is “reduced leukemia xenograft growth rates” and the “survival, drug combined with ART838” value is given as “prolonged survivals”. Further, in data set [3] (drug combined with AS, each at 2.25× approximate 48 h IC50), the “effect of the drug on AS-induced superoxide” value was “reduced”. Further, the “tumor growth inhibition, AS plus SOR versus either drug alone” value in the data set on MOLM14 AML xenografts is reported as “inhibited tumor growth substantially more than did either drug alone”.

As a reminder, the IC50 is the concentration that gives 50% inhibition. On to `C[C@@H]1CCC2[C@@H](C)[C@@H](CC(COP(=O)(Oc3ccccc3)Oc3ccccc3)C[C@H]3O[C@@H]4O[C@@]5(C)CCC6[C@H](C)CCC([C@H]3C)[C@]64OO5)O[C@@H]3O[C@@]4(C)CCC1[C@@]23OO4` (some centres unmarked) [ART-838, artemisinin-derived trioxane diphenylphosphate dimer 838], for which the half-maximal inhibitory concentration (IC50) in the data set with human AML cell lines (median over the human AML cell lines tested (11 for AS and ART838, 4 for ART631), read-out: IC50 median) is 38 nM; in the data set on human AML cell lines (range over the human AML cell lines tested (11 for AS and ART838, 4 for ART631), read-out: IC50 range), 10 to 547 nM. For the same compound, the “previously established MTD, PO×5 d schedule” value in “in vivo” (5 d-on/9 d-off, gavage) was found to be 50 mg/kg/day. The “MTD regimen, repeated dose” value in the data set “in vivo” (qd×5 PO) is reported as 50 mg/kg. Also, the “exposure, oral ART631 compared with ART838” value in data set [4] is reported as “similar”. In addition, in data set [5], the “in vitro potency relative to AS” value is reported as 88 fold. Also, the “tolerability and antileukemic efficacy, ART631 compared with ART838” value in data set [6] is “closely similar tolerability and antileukemic efficacy”. The “in vivo T1/2” value in data set [7] is 3 h. For the same compound, in data set [3] (2.25× approximate 48 h IC50, MitoSox MFI), the “mitochondrial superoxide generation, drug alone” value was “induced superoxide to greater levels than AS; also recorded: induced mitochondrial superoxide generation”.
